Measurements from patent publication US20170280720A1, “ARGININE […] INHIBITORS AND USES THEREOF” (EPIZYME, INC., priority 2014, published 2017).

Assays:
Human CARM1 (PRMT4) = target: T1, Human CARM1 (PRMT4) (Homo sapiens, UniProt Q86X55); assay: CARM1 biochemical assay (3H-SAM Flashplate, peptide substrate); conditions: read-out: CARM1_ IC50
T1 construct: Flag-CARM1-His; made in house; host or cells: HEK 293F cells (BacMam baculovirus, pFastBacMam)
T1 sequence (Q86X55 2-585 isoform Q86X55-1): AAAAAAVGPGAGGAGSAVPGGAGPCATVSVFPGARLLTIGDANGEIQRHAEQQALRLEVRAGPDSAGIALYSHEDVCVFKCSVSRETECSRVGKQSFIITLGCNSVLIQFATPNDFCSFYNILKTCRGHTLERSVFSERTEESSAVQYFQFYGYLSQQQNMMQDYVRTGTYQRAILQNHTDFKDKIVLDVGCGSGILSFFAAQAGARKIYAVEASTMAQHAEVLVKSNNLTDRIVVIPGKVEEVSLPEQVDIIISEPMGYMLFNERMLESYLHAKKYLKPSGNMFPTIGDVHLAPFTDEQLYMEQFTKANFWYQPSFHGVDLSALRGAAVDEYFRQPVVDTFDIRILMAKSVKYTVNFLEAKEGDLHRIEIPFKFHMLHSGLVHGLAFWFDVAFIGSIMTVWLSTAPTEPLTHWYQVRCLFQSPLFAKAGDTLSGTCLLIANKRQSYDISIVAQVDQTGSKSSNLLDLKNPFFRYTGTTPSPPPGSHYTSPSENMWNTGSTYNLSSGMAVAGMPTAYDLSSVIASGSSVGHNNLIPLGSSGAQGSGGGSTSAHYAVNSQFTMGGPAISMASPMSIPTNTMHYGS
Description: (§1) S-adenosylmethionine (SAM), S-adenosylhomocysteine (SAH), bicine, Tween20, dimethylsulfoxide (DMSO), bovine skin gelatin (BSG), sodium butyrate and Tris(2-carboxyethyl)phosphine hydrochloride solution (TCEP) were purchased from Sigma-Aldrich at the highest level of purity possible. ^3H-SAM was purchase from American Radiolabeled Chemicals with a specific activity of 80 Ci/mmol. 384-well streptavidin Flashplates were purchased from PerkinElmer.
Peptide representative of human histone H3 residues 16-30 was synthesized with an N-terminal linker-affinity tag motif and a C-terminal amide cap by 21st Century Biochemicals. The peptide was purified by high-performance liquid chromatography (HPLC) to greater than 95% purity and confirmed by liquid chromatography mass spectrometry (LC-MS). The sequence was Biot-Ahx-[…]-amide and contained a monomethylated arginine at position 26 (SEQ ID NO.: 14).
Human CARM1 (PRMT4) (NM_199141.1) transcript clone was amplified from an HEK 293 cDNA library, incorporating a flanking 5′ sequence encoding a FLAG tag ([…]) (SEQ ID NO.: 6) fused directly to Ala 2 of CARM1 and 3′ sequence encoding a hexa His sequence ([…]) (SEQ ID NO.: 15) fused directly to Ser 608. The gene sequence encoding isoform1 containing a deletion of amino acids 539-561 was amplified subsequently and subcloned into pFastBacMam (Viva Biotech).
Recombinant baculovirus were generated according to Bac-to-Bac kit instructions (Life Technologies). […] Infections were carried out at 37° C. for 48 hours, harvested by centrifugation, and stored at −80° C. for purification.
Column was washed with 500 mM NaCl in buffer A and Flag-CARM1-His was eluted with 200 ug/ml FLAG peptide in buffer A. Pooled fractions were dialyzed in 20 mM Tris, 150 mM NaCl, 5% glycerol and 1 mM DTT, pH 7.8. The purity of recovered protein was 94.
General Procedure for CARM1 Enzyme Assays on Peptide Substrates.
The assays were all performed in a buffer consisting of 20 mM Bicine (pH=7.6), 1 mM TCEP, 0.005% BSG, and 0.002% Tween 20, prepared on the day of use. Compounds in 100% DMSO (1 ul) were spotted into a polypropylene 384-well V-bottom plates (Greiner) using a Platemate Plus outfitted with a 384-channel head (Thermo Scientific). DMSO (1 ul) was added to Columns 11, 12, 23, 24, rows A-H for the maximum signal control and 1 ul of SAH, a known product and inhibitor of CARM1, was added to columns 11, 12, 23, 24, rows I-P for the minimum signal control. A cocktail (40 ul) containing the CARM1 enzyme was added by Multidrop Combi (Thermo-Fisher). The compounds were allowed to incubate with CARM1 for 30 min at room temperature, then a cocktail (10 ul) containing ^3H-SAM and peptide was added to initiate the reaction (final volume=51 ul). The final concentrations of the components were as follows: CARM1 was 0.25 nM, ^3H-SAM was 30 nM, peptide was 250 nM, SAH in the minimum signal control wells was 1 mM, and the DMSO concentration was 2%. The assays were stopped by the addition of non-radiolabeled SAM (10 ul) to a final concentration of 300 uM, which dilutes the ^3H-SAM to a level where its incorporation into the peptide substrate is no longer detectable. 50 ul of the reaction in the 384-well polypropylene plate was then transferred to a 384-well Flashplate and the biotinylated peptides were allowed to bind to the streptavidin surface for at least 1 hour before being washed once with 0.1% Tween20 in a Biotek ELx405 plate washer. The plates were then read in a PerkinElmer TopCount plate reader to measure the quantity of ^3H-labeled peptide bound to the Flashplate surface, measured as disintegrations per minute (dpm) or alternatively, referred to as counts per minute (cpm).
Where dpm=disintegrations per minute, cmpd=signal in assay well, and min and max are the respective minimum and maximum signal controls.
Where top and bottom are the normally allowed to float, but may be fixed at 100 or 0 respectively in a 3-parameter fit. […]

[1] = tested on: asymmetric di-methyl PABP1 in RKO cells; assay: In Cell Western (ICW) for asymmetric di-methyl PABP1 and DNA content in RKO cells; type: cell-based; conditions: In Cell Western
Description: RKO adherent cells were purchased from ATCC (American Type Culture Collection), Manassas, Va., USA. DMEM/Glutamax medium, penicillin-streptomycin, heat inactivated fetal bovine serum, 0.05% trypsin and D-PBS were purchased from Life Technologies, Grand Island, N.Y., USA. Odyssey blocking buffer, 800CW goat anti-rabbit IgG (H+L) antibody, and Licor Odyssey infrared scanner were purchased from Licor Biosciences, Lincoln, Nebr., USA. Mono-methyl arginine antibody was purchased from Cell Signaling Technology, Danvers, Mass., USA. Methanol was purchased from VWR, Franklin, Mass., USA. 10% Tween 20 was purchased from KPL, Inc., Gaithersburg, Md., USA. […] was purchased from Biostatus Limited, Leicestershire, UK. RKO adherent cells were maintained in growth medium (DMEM/Glutamax medium supplemented with 10% v/v heat inactivated fetal bovine serum and 100 units/mL penicillin-streptomycin) and cultured at 37° C. under 5% CO2. Cell Treatment, in Cell Western (ICW) for Detection of Asymmetric Di-Methyl PABP1 and DNA Content. RKO cells were seeded in assay medium at a concentration of 30,000 cells per mL to a poly-D-lysine coated 384 well culture plate (BD Biosciences 356697) with 50 μL per well. Compound (100 nL) from a 96-well source plate was added directly to 384 well cell plate. Plates were incubated at 37° C., 5% CO2 for 48 hours. After two days of incubation, plates were brought to room temperature outside of the incubator for ten minutes and blotted on paper towels to remove cell media. Cells were fixed for 20 minutes at room temperature by adding 50 μl of 8% PFA followed by aspiration of supernatant with the Biotek EL406 plate washer. Cells were then permeabilized by addition of 50 μL of ice cold 100% methanol directly to each well and incubated for 30 min at room temperature. After 30 min, plates were transferred to a Biotek EL406 plate washer and washed 2 times with 100 μL per well of wash buffer (1×PBS). Next 60 μL per well of Odyssey blocking buffer (Odyssey Buffer with 0.1% Tween 20 (v/v)) were added to each plate and incubated 1 hour at room temperature. Blocking buffer was removed and 20 μL per well of primary antibody was added (asymmetric-methyl PABP1) diluted 1:400 in Odyssey buffer with 0.1% Tween 20 (v/v)) and plates were incubated overnight (16 hours) at 4° C. Plates were washed 5 times with 100 μL per well of wash buffer. Next 20 μL per well of secondary antibody was added (1:800 800CW goat anti-rabbit IgG (H+L) antibody, 1:2000 DRAQS in Odyssey buffer with 0.1% Tween 20 (v/v)) and incubated for 1 hour at room temperature. The plates were washed 5 times with 100 μL per well wash buffer then 2 times with 100 μL per well of water. Plates were allowed to dry at room temperature then imaged on the Licor Odyssey machine which measures integrated intensity at 700 nm and 800 nm wavelengths. Both 700 and 800 channels were scanned. Calculations: First, the ratio for each well was determined by: Each plate included fourteen control wells of DMSO only treatment (minimum inhibition) as well as fourteen control wells for maximum inhibition treated with 20 μM of a reference compound. The average of the ratio values for each control type was calculated and used to determine the percent activation for each test well in the plate. Reference compound was serially diluted three-fold in DMSO for a total of nine test concentrations, beginning at 20 μM. Percent inhibition was determined and IC50 curves were generated using triplicate wells per concentration of compound.

human PRMT1 = target: T2, human PRMT1 (Homo sapiens, UniProt Q99873); assay: PRMT1 biochemical assay (3H-SAM Flashplate, peptide substrate); conditions: read-out: PRMT1_ IC50
T2 construct: GST-tagged PRMT1; made in house; host or cells: High Five insect cells (baculovirus, pFastBacI)
Description: as §1, with “(BSG),” for “(BSG), sodium butyrate”
Peptide representative of human histone H4 residues 36-50 was synthesized with an N-terminal linker-affinity tag motif and a C-terminal amide cap by 21st Century Biochemicals. The peptide was purified by high-performance liquid chromatography (HPLC) to greater than 95% purity and confirmed by liquid chromatography mass spectrometry (LC-MS). The sequence was Biot-Ahx-[…]-amide (SEQ ID NO.: 1).
Full-length human PRMT1 isoform 1 (NM_001536.5) transcript clone was amplified from an HEK 293 cDNA library, incorporating flanking 5′ sequence encoding a FLAG tag ([…]) (SEQ ID NO.: 2) fused directly to Met 1 of PRMT1. The amplified gene was subcloned into pFastBacI (Life Technologies) modified to encode an N-terminal GST tag and a TEV cleavage sequence ([…] […] […] […] QGGNS)(SEQ ID NO.: 3) fused to Asp of the Flag tag of PRMT1.
Recombinant baculovirus were generated according to Bac-to-Bac kit instructions (Life Technologies). Protein over-expression was accomplished by infecting exponentially growing High Five insect cell culture at 1.5×10^6 cell/ml with 1:100 ratio of virus. Infections were carried out at 27° C. for 48 hours, harvested by centrifugation, and stored at −80° C. for purification.
GST-tagged PRMT1 was eluted with 50 mM Tris, 2 mM glutathione, pH 7.8, dialysed in buffer A and concentrated to 1 mg/mL. The purity of recovered protein was 73%. Reference: Wasilko, D. J. and S. E. Lee: “TIPS: titerless infected-cells preservation and scale-up” Bioprocess J., 5 (2006), pp. 29-32.
General Procedure for PRMT1 Enzyme Assays on Peptide Substrates.
The assays were all performed in a buffer consisting of 20 mM Bicine (pH=7.6), 1 mM TCEP, 0.005% BSG, and 0.002% Tween 20, prepared on the day of use. Compounds in 100% DMSO (1 ul) were spotted into a polypropylene 384-well V-bottom plates (Greiner) using a Platemate Plus outfitted with a 384-channel head (Thermo Scientific). DMSO (1 ul) was added to Columns 11, 12, 23, 24, rows A-H for the maximum signal control and 1 ul of SAH, a known product and inhibitor of PRMT1, was added to columns 11, 12, 23, 24, rows I-P for the minimum signal control. A cocktail (40 ul) containing the PRMT1 enzyme was added by Multidrop Combi (Thermo-Fisher). The compounds were allowed to incubate with PRMT1 for 30 min at room temperature, then a cocktail (10 ul) containing SAM and peptide was added to initiate the reaction (final volume=51 ul). The final concentrations of the components were as follows: PRMT1 was 0.5 nM, ^3H-SAM was 200 nM, non-radiolabeled SAM was 1.5 uM, peptide was 20 nM, SAH in the minimum signal control wells was 1 mM, and the DMSO concentration was 2%. The assays were stopped by the addition of non-radiolabeled SAM (10 ul) to a final concentration of 300 uM, which dilutes the ^3H-SAM to a level where its incorporation into the peptide substrate is no longer detectable. 50 ul of the reaction in the 384-well polypropylene plate was then transferred to a 384-well Flashplate and the biotinylated peptides were allowed to bind to the streptavidin surface for at least 1 hour before being washed once with 0.1% Tween20 in a Biotek ELx405 plate washer. The plates were then read in a PerkinElmer TopCount plate reader to measure the quantity of ^3H-labeled peptide bound to the Flashplate surface, measured as disintegrations per minute (dpm) or alternatively, referred to as counts per minute (cpm).
Where dpm=disintegrations per minute, cmpd=signal in assay well, and min and max are the respective minimum and maximum signal controls. […]

T2 sequence (Q99873 with tags, fused parts or gaps): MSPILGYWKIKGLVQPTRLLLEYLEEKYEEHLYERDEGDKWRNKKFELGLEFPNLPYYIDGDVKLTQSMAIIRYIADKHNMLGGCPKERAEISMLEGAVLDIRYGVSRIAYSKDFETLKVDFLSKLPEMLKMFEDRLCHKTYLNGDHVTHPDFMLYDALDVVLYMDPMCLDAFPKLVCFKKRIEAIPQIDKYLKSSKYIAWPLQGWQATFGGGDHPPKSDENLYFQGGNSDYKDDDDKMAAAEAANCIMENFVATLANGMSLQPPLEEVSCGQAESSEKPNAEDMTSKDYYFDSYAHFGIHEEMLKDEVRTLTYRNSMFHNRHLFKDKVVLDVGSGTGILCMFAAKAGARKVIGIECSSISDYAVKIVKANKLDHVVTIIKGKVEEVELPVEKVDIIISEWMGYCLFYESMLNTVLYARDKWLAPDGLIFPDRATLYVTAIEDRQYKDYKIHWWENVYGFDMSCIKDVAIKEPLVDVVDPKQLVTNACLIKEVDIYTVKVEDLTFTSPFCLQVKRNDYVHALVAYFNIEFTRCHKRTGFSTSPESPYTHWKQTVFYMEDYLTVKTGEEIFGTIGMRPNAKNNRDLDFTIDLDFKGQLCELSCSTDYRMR

Compound | IC50 (Human CARM1 (PRMT4)) [nM] | IC50 ([1]; Homo sapiens, RKO) [µM] | IC50 [1] [µM] | IC50 (human PRMT1) [nM]
CC(C)n1ncc2c(C(=O)NCc3ccncc3)cc(-c3cccc(CN(C)CCN)c3)nc21 [Compound 172] | 5.67 | 3.14 |  | 
CCOC(=O)Nc1cc(-c2cccc(CN(C)CCN)c2)nc2c1cnn2C(C)C [Compound 173] | 5.93 | 3.31 |  | 
CC(C)n1ncc2c(NC(=O)NC3CCOCC3)cc(-c3cccc(CN(C)CCN)c3)nc21 [Compound 175] | 6.94 | 11.5 |  | 

More lines, now with the values ahead:

IC50 (Human CARM1 (PRMT4)) [nM] | IC50 ([1]; Homo sapiens, RKO) [µM] | IC50 [1] [µM] | IC50 (human PRMT1) [nM] | Compound
6.11 | 5.04 |  |  | CN(CCN)Cc1cccc(-c2nc(NC3CCOCC3)c3cnn(C4CC4)c3n2)c1 [Compound 174]
 | 1.4 |  |  | CNCCN(C)Cc1cccc(-c2cc(C(=O)NCc3cc(C)on3)c3cnn(C(C)C)c3n2)c1 [Compound 186]
 |  | 2.25 |  | CNCCN(C)Cc1cccc(-c2cc(C(=O)NCc3cc(C)on3)c3cnn(C(C)C)c3n2)c1 [Compound 229]
 |  |  | 101 | CNCCN(C)Cc1cccc(-c2cncc(C(=O)NCc3c(C)cc(C)[nH]c3=O)c2)c1 [Compound 375]
 |  |  | 340 | Cc1cc(C)c(CNC(=O)c2cncc(-c3cccc(CN(C)CCN)c3)c2)c(=O)[nH]1 [Compound 380]
